ChEMBL document CHEMBL5365530, “Identification of a Novel, Potent, and Orally Bioavailable Guanidine-Based SHP2 Allosteric Inhibitor from Virtual Screening and Rational Structural Optimization for the Treatment of KRAS Mutant Cancers” (J Med Chem, 2023)

Columns and labels:
[1] = Hepatotoxicity in ICR mouse assessed as increase in plasma ALP level at 100 mg/kg, po administered once every 2 days and measured on day 14; type: toxicity, organism-based; settings: in vivo, 336 h, time 14 day
RAW264.7 = test: Cytotoxicity against mouse RAW264.7 cells assessed as cell viability at 10 to 30 uM incubated for 72 hrs by CellTiter-LumiII Luminescent assay; type: toxicity, cell-based; settings: raw264.7, 72 h, dose 10-30 µM
KYSE-520 cell line = test: Antiproliferative activity against human KYSE-520 cells assessed as inhibition of cell growth incubated for 72 hrs by CellTiter-LumiII Luminescent assay; type: functional, cell-based; settings: KYSE-520, 72 h
MIA PaCa-2 = test: Antiproliferative activity against human MIA PaCa-2 cells harboring KRASG12C mutant assessed as inhibition of cell growth incubated for 72 hrs by CellTiter-LumiII Luminescent assay; type: functional, cell-based; settings: MIA PaCa-2, 72 h
[2] = Hepatotoxicity in ICR mouse assessed as increase in plasma AST level at 100 mg/kg, po administered once every 2 days and measured on day 14; type: toxicity, organism-based; settings: in vivo, 336 h, time 14 day
[3] = Hepatotoxicity in ICR mouse assessed as increase in plasma ALT level at 100 mg/kg, po administered once every 2 days and measured on day 14; type: toxicity, organism-based; settings: in vivo, 336 h, time 14 day
[4] = target: T1, Tyrosine-protein phosphatase non-receptor type 11 (Homo sapiens, UniProt Q06124); test: Allosteric Inhibition of H2N-LN(pY)IDLDLV(dPEG8)LST(pY)ASINFQKASINFQK-amide-activated SHP2 (unknown origin) using DiFMUP as substrate pretreated with enzyme for 1 hr followed by substrate addition and measured after 20 mins by fluorescence based analysis
T1 sequence (Q06124 whole entry): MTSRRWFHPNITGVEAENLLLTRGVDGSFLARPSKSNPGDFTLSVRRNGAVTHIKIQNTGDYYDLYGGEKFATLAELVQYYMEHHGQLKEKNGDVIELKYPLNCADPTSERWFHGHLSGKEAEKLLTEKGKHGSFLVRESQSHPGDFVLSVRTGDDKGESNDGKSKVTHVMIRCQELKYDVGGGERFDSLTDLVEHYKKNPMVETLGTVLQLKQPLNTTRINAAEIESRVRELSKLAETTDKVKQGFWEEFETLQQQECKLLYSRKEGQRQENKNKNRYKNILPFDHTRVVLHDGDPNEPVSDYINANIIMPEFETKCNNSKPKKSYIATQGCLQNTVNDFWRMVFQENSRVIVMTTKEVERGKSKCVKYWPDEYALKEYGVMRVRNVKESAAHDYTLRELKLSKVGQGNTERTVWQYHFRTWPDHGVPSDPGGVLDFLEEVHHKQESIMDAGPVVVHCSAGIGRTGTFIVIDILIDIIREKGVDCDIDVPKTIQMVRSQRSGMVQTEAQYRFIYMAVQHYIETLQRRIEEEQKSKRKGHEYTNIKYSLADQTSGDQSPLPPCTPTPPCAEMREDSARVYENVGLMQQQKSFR

Row | Structure (SMILES) | IC50 [4] [nM] | further results
1 | CC1(N)CCN(c2cnc(-c3cccc(Cl)c3Cl)c(N)n2)CC1 |  | Activity [1]: Toxic; Activity (RAW264.7): Non-Toxic; IC50 (KYSE-520 cell line): 10800 nM; IC50 (MIA PaCa-2): 41900 nM; Activity [2]: Toxic; Activity [3]: Toxic
2 | N#Cc1cc(/N=C(\N)N2CCN(c3cnc(-c4cccc(Cl)c4Cl)c(N)n3)CC2)cs1 | 72.8 | 
3 | N#Cc1ccc(/N=C(\N)N2CCN(c3cnc(Sc4cccnc4C(F)(F)F)c(N)n3)CC2)cc1 | 159 | 
4 | COc1ccc(/N=C(\N)N2CCN(c3cnc(-c4cccc(Cl)c4Cl)c(N)n3)CC2)cc1 | 52.7 | 
5 | N/C(=N\c1cnccn1)N1CCN(c2cnc(-c3cccc(Cl)c3Cl)c(N)n2)CC1 | 396 | 
6 | CN(CCN(C)c1cnc(-c2cccc(Cl)c2Cl)c(N)n1)C(=N)N | 6250 | 
7 | N/C(=N\c1cccs1)N1CCN(c2cnc(-c3cccc(Cl)c3Cl)c(N)n2)CC1 | 252 | 
8 | N=C(N)N1CCN(c2cnc(-c3cccc(Cl)c3Cl)c(N)n2)C(=O)C1 | > 10000 | 
9 | CN/C(=N\c1ccc(C#N)cc1)N1CCN(c2cnc(-c3cccc(Cl)c3Cl)c(N)n2)CC1 | 2000 | 
10 | N/C(=N\c1ccccn1)N1CCN(c2cnc(-c3cccc(Cl)c3Cl)c(N)n2)CC1 | 184 | 
11 | N/C(=N\c1ncccn1)N1CCN(c2cnc(-c3cccc(Cl)c3Cl)c(N)n2)CC1 | 715 | 
12 | N#Cc1ccc(/N=C(\N)N2CCN(c3cnc(-c4cccc(Cl)c4Cl)c(N)n3)CC2)cc1 | 34.6 | 
13 | N/C(=N\C(=O)c1ccncc1)N1CCN(c2cnc(-c3cccc(Cl)c3Cl)c(N)n2)CC1 | 4850 | 
14 | N/C(=N\c1ccccc1)N1CCN(c2cnc(-c3cccc(Cl)c3Cl)c(N)n2)CC1 | 137 | 
15 | NC(=O)N1CCN(c2cnc(-c3cccc(Cl)c3Cl)c(N)n2)CC1 | 6360 | 
